Test results as given in patent US20040038888A1 (priority 2002, published 2004).
Ends that are not written are not given here.

Tests used:
[1] = test system: mouse adult neural stem cells; assay: Intracellular ATP assay, adult mouse NSC, non-adherent culture; assay type: cell-based; settings: for effect of inhibitor on the PACAP increase of intracellular ATP: co-incubated with PACAP 100 nM, 4 days, 10 uM H89, 1 uM U73122, 1 uM Gö6976
Protocol: The anterior lateral wall of the lateral ventricle of 5-6 week old mice was enzymatically dissociated in 0.8 mg/ml hyaluronidase and 0.5 mg/ml trypsin in DMEM containing 4.5 mg/ml glucose and 80 units/ml DNase at 37° C. for 20 min. The cells were gently triturated and mixed with three volumes of Neurosphere medium (DMEM/F12, B27 supplement, 12.5 mM HEPES pH7.4) containing 20 ng/ml EGF (unless otherwise stated), 100 units/ml penicillin and 100μg/ml streptomycin. After passing through a 70 μm strainer, the cells were pelleted at 160×g for 5 min. The supernatant was subsequently removed and the cells resuspended in Neurosphere medium supplemented as above, plated out in culture dishes and incubated at 37° C. Neurospheres were ready to be split approximately 7 days after plating.
To split neurosphere cultures, neurospheres were collected by centrifugation at 160×g for 5 min. The neurospheres were resuspended in 0.5 ml Trypsin/EDTA in HBSS (1×), incubated at 37° C. for 2 min and triturated gently to aid dissociation. Following a further 3 min incubation at 37° C. and trituration, 3 volumes of ice cold NSPH-media-EGF were added to stop further trypsin activity. The cells were pelleted at 220×g for 4 min, resuspended in fresh Neurosphere medium supplemented with 20 ng/ml EGF and 1 nM bFGF plated out and incubated at 37° C.
Mouse neurospheres, cultured as described above, from passage 2, were seeded in DMEM/F12 supplemented with B27 into a 96-well plate as single cells (10000 cells/well) to the substances to be measured were added at the concentrations indicated. After 3 days incubation, intracellular ATP was measured using the ATP-SL kit from BioThema, Sweden, according to the manufacturer's instructions. PACAP and VIP were purchased from Bachem. Maxadilan was a kind gift from Richard G Titus, Dept Microbiology, Immunology and Pathology, College of Veterinary Medicine and Biological Sciences, Colorado State University.
In experiments where signalling pathways were examined, cells were seeded as single cells as mentioned above. PACAP, 100 nM, was co incubated with 10 uM PKA inhibitor H89 (Alexis-Biochemicals) or 1 uM PLC inhibitor U73122 (Alexis-Biochemicals) or 1 uM of the PKC inhibitor Gö6976 (Sigma-Aldrich). Cells were incubated for 4 days before measurements of ATP.
In the experiment analysing the combinatory effect of PACAP and EGF, PACAP at 100 nM was co-incubated with 3 nM EGF for 3 days.

[2] = test system: AP-1; assay: AP-1 transcription factor reporter assay; assay type: cell-based, mouse; settings: PD89059 10 μM with PACAP 100 nM
Protocol: Vectors: Vector DNA containing reporter elements for AP-1 and empty cloning vector (pTAL), with a luciferace reporter were purchased from Promega. The vectors were propagated in E. coli strain JM-109 (Promega) and purified with Qiagens maxi-prep Kit (Qiagen). The concentration was diluted to approximately 1 mg/ml per vector.
Transfection: Transient transfection was performed by seeding cells as above in suspension neurosphere cell culture and adherent neurosphere cell culture (1 to 3 day incubation) using 30,000 single cells/well. Each well was transiently transfected with […] plasmid, 0.6 μg Nupherin-neuron (Biomol) and 0,6 μl of Fugene-6 (Roche). Plasmid and Nupherin was mixed and diluted in DMEM/F12 to a total volume of 50 μl/well, and were incubated for 15 minutes prior to mixing with Fugene-6 that were diluted in DMEM/F12 to a total volume of 50 μl/well. The mix of plasmid and Nupherin and Fugene-6 were incubated for 20 min. The volume was adjusted to 100 μl prior to addition of 100 μl/well of transfection reagent.
Assay: The following day the transiently transfected cells were applied with PACAP (Bachem) to final concentration of 100 nM/well, in the presence or absence of MEK inhibitor, […] (Sigma-Aldrich). Luciferace activity was analysed with steady glow (Promega) according to the instructions of the manufacturer. Cells were analysed 20 hours after induction with PACAP.

[3] = test system: NSC from LVW; assay: Culture of NSC for cell counting; assay type: cell-based, mouse; settings: PACAP 100 nM, VEGF 1 nM, in place of EGF, 7 days; VEGF relative to PACAP treated NSC
Protocol: Anterior lateral ventricle wall was dissected and the cells treated as stated above, however, in place of EGF, the medium was supplemented either with PACAP (100 nM), VEGF (1 nM) or a combination of both at the stated concentrations. The cell suspension was plated into wells of a 24 well plate. The medium was further supplemented with PACAP and/or VEGF every 2 days. After 7 days in culture, the NSC washed in phosphate buffered saline and dissociated with trypsin/EDTA. Cells numbers per well were counted using a Bürker chamber. VEGF was purchased from R&D Systems.

## Cn1c2ccccc2c2c3c(c4c5ccccc5n(CCC#N)c4c21)CNC3=O [Gö6976, reference compound]
[1]
  effect of inhibitor on the PACAP increase of intracellular ATP: entirely negate the effect of PACAP

## O=S(=O)(NCCNC/C=C/c1ccc(Br)cc1)c1cccc2cnccc12 [H89, reference compound]
[1]
  effect of inhibitor on the PACAP increase of intracellular ATP: unaltered

## COc1cccc(-c2cc(=O)c3ccccc3o2)c1N [PD89059, reference compound]
[2]
  effect of MEK inhibitor on the PACAP induction of AP-1: inhibited

## COc1ccc2c(c1)CC[C@@H]1[C@@H]2CC[C@]2(C)[C@@H](NCCCCCCN3C(=O)C=CC3=O)CC[C@@H]12 [U73122, reference compound]
[1]
  effect of inhibitor on the PACAP increase of intracellular ATP: entirely negate the effect of PACAP

## EGF: mitogen, growth factor for cell cultures from BD Biosciences
[1]; PACAP 100 nM, EGF 3 nM, alone or combined, 3 days
  intracellular ATP levels, and hence NSC number: increased intracellular ATP levels

## Vasoactive intestinal peptide (HSDAVFTDNYTRLRKQMAVKKYLNSILN; ends and bridges not checked; UniProt P01282 125-152, looked up) [VIP, 28-amino acid peptide]
[1]; VIP at 1 μM, non-adherent conditions, 3 days, relative to control
  intracellular ATP, and hence cell number: statistically significant increase in intracellular ATP

## vascular endothelial growth factor [VEGF]
[3]
  cell number: significant increase in cell number
